Assay results published in patent US20230181570A1, “Transdermal Formulation Containing Apomorphine” (MEDRX CO., LTD., priority 2020, published 2023).
Where a name gives a salt, the structure may show the parent alone.

Assay: Study of the solubility of apomorphine hydrochloride in various solvents

- solubility (each used alone: water, 1,3-butanediol, polyethylene glycol, propylene glycol, glycerin, propylene carbonate): ≤ 3 % by weight
- apomorphine hydrochloride solution able to be prepared (low molecular weight polyethylene glycol combined with propylene carbonate): 8 % by weight
- solubility in propylene carbonate (propylene carbonate used alone): 0.25 % by weight
- apomorphine hydrochloride solution able to be prepared (propylene glycol and propylene carbonate, weight of propylene glycol five times or more that of propylene carbonate): 10 % by weight
SMILES: CN1CCc2cccc3c2[C@H]1Cc1ccc(O)c(O)c1-3 [apomorphine hydrochloride]
